Consider five compounds from BindingDB's records for doi:10.1016/j.bmcl.2007.11.087 (Bristol-Myers Squibb, 2008).

A short description of this experiment: Antagonist activity at human CCR3 receptor assessed as inhibition of chemotaxis in eosinophil.
For the compound `CCc1cc(NC(=O)N[C@H](C)[C@@H](O)CN(C)CCCc2ccc(F)cc2)cc(-c2nnnn2C)c1` [1-(3-ethyl-5-(1-methyl-1H-tetrazol-5-yl)phenyl)-3-((2R,3S)-4-((3-(4-fluorophenyl)propyl)(methyl)amino)-3-hydroxybutan-2-yl)urea], the IC50 stood at 2.6 nM.

As for `C[C@@H](NC(=O)Nc1cccc(-c2nnnn2C)c1)[C@@H](O)CN(C)[C@@H](C)[C@@H](O)c1ccccc1` [1-((2R,3S)-3-hydroxy-4-(((1S,2S)-1-hydroxy-1-phenylpropan-2-yl)(methyl)amino)butan-2-yl)-3-(3-(1-methyl-1H-tetrazol-5-yl)phenyl)urea], the IC50 was 22 nM.

As to `CCc1cc(NC(=O)N[C@H](C)[C@@H](O)CN(CCCc2ccc(F)cc2)CC2CC2)cc(-c2nnnn2C)c1` [1-((2R,3S)-4-((cyclopropylmethyl)(3-(4-fluorophenyl)propyl)amino)-3-hydroxybutan-2-yl)-3-(3-ethyl-5-(1-methyl-1H-tetrazol-5-yl)phenyl)urea], the IC50 was 0.005 nM.

`CCc1cc(NC(=O)N[C@H](C)[C@@H](O)CN(CC)CCCc2ccc(F)cc2)cc(-c2nnnn2C)c1` [1-((2R,3S)-4-(ethyl(3-(4-fluorophenyl)propyl)amino)-3-hydroxybutan-2-yl)-3-(3-ethyl-5-(1-methyl-1H-tetrazol-5-yl)phenyl)urea]: the IC50 was found to be 0.004 nM.

Turning to `C[C@@H](NC(=O)Nc1cccc(-c2nnnn2C)c1)[C@@H](O)CN1CCC[C@@H](Cc2ccc(F)cc2)C1` [1-{(1R,2S)-3-[(S)-3-(4-Fluoro-benzyl)-piperidin-1-yl]-2-hydroxy-1-methyl-propyl}-3-[3-(1-methyl-1H-tetrazol-5-yl)-phenyl]-urea], the concentration for half-maximal inhibition (IC50) was determined as 0.038 nM.

The IC50 is the midpoint of a concentration-inhibition curve.
